Where two headings read alike, the source gives them in different places.
Key:
[1] = test system: neurologic deficits secondary to cerebral ischemia; details: cited from earlier work
[2] = test system: acute focal cerebral ischemia; design: species or system cats; details: in vivo, ip
[3] = test system: neurologic deficits produced by unilateral carotid ligation; details: cited from earlier work
analgesic response = details: cited from earlier work

For `CN1CC[C@]23c4c5ccc(O)c4O[C@H]2[C@@H](O)C=C[C@H]3[C@H]1C5` [morphine], the “neurologic deficits secondary to cerebral ischemia” value ([1]; in vivo) is given as “exacerbates them”.

For `C=CCN1CC[C@]23c4c5ccc(O)c4O[C@H]2C(=O)CC[C@@]3(O)[C@H]1C5` [naloxone, 17 - allyl - 4,5a - epoxy - 3,14 - dihydroxymorphinan - 6 - one], the “prolonging survival (mortality as a function of time following the cerebral artery occlusions)” value [2] is given as “prolonged survival”, the “neurologic function and infarct size” value ([3]; gerbils, temporary carotid occlusion, Levy et al. (1982)) is given as “did not produce improved neurologic function or alter infarct size” and the “neurologic deficits produced by unilateral carotid ligation” value ([3]; gerbils, intraperitoneal administration, Science 215:69-71 (1982)) is given as “can be reversed”. For the same compound, the “survival and neurologic function” value ([3]; several different models of stroke in gerbils, Holaday and D'Amato (1982)) was “no beneficial effect” and the “neurologic deficits secondary to cerebral ischemia” value ([1]; man, Lancet 2:272-275 (1981)) was “can reverse neurologic deficits”.

With `O=C1CC[C@@]2(O)[C@H]3Cc4ccc(O)c5c4[C@@]2(CCN3CC2CC2)[C@H]1O5` [naltrexone] the “prolonging survival (mortality as a function of time following the cerebral artery occlusions)” value [2] was “prolonged survival”.

For “Dynorphin: opioid peptide first isolated from pituitary glands; natural compound's full 17 amino acid sequence”, the analgesic potency (analgesic response; mice) is given as “little or no analgesic potency”, the “effect on narcotic analgesia in tolerant animals” value (analgesic response; morphine-tolerant animals / tolerant hosts) is given as “potentiates the analgetic effect of both morphine and β-endorphin” and the “effect on narcotic analgesia in naive animals” value (analgesic response; naive animals, analgesic response to morphine and β-endorphin / narcotic analgesics) is given as “inhibits, or antagonizes, the analgesic response to both morphine and β-endorphin”.
